According to patent US11547697B2, “Heterocyclic compounds and uses thereof” (MILLENNIUM PHARMACEUTICALS, INC., priority 2009, dated 2023):
Read-outs that look alike come from different tables or passages of the source.

Key:
[1] = test system: tumor cells with a PI3Kα mutation (e.g., MDA-MB-361 and T47D); assay: Proliferation of tumor cells with PI3Kα mutation; format: cell-based; conditions: Homo sapiens
[2] = molecular target: p110γ (Homo sapiens (Human), UniProt P48736); assay: PI 3-Kinase (human) HTRF assay, p110γ; format: biochemical
[3] = molecular target: p110β/p85α (Homo sapiens (Human), UniProt P42338); assay: PI 3-Kinase (human) HTRF assay, p110β/p85α; format: biochemical
[4] = molecular target: p110δ/p85α (Homo sapiens (Human), UniProt O00329); assay: PI 3-Kinase (human) HTRF assay, p110δ/p85α; format: biochemical
[5] = molecular target: p110α/p85α (Homo sapiens (Human), UniProt P42336); assay: PI 3-Kinase (human) HTRF assay, p110α/p85α; format: biochemical
[6] = T47D cells, read-out: T47D proliferation
[7] = T47D cells, read-out: T47D proliferation IC50
[8] = in vitro, read-out: PI3K γ IC50
[9] = in vitro, read-out: PI3K β IC50
[10] = in vitro, read-out: PI3K δ IC50
[11] = in vitro, read-out: PI3K α IC50
[12] = PC3, read-out: PC3 proliferation In Vitro IC50

p110α/p85α, sequence (P42336 whole entry): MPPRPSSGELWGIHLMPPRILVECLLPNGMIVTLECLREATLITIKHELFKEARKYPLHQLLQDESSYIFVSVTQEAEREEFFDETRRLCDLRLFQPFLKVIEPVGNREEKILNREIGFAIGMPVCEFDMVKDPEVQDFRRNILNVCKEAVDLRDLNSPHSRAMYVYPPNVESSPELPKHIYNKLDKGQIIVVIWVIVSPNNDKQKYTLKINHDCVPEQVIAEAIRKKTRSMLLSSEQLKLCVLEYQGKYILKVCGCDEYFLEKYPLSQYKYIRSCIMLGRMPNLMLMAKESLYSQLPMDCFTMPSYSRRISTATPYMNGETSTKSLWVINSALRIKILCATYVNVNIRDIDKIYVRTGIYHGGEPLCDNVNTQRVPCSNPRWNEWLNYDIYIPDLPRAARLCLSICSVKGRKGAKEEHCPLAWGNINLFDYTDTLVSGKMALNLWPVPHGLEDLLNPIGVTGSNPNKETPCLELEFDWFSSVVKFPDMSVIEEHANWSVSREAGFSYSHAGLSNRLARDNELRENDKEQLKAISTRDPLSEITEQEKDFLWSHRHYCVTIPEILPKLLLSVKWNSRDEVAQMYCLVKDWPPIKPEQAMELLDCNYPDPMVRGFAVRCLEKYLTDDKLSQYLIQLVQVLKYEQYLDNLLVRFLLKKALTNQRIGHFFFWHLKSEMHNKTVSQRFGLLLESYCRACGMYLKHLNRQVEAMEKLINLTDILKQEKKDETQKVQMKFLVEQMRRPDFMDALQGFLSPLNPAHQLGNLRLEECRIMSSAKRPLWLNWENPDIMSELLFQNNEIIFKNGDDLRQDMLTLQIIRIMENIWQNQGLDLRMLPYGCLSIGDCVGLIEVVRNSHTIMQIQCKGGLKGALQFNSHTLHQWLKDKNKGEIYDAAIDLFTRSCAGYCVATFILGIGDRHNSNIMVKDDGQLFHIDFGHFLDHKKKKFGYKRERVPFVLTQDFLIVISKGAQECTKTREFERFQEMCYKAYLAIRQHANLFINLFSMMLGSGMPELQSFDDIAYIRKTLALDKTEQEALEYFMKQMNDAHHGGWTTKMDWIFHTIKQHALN
p110α/p85α, sequence (P27986 whole entry partner): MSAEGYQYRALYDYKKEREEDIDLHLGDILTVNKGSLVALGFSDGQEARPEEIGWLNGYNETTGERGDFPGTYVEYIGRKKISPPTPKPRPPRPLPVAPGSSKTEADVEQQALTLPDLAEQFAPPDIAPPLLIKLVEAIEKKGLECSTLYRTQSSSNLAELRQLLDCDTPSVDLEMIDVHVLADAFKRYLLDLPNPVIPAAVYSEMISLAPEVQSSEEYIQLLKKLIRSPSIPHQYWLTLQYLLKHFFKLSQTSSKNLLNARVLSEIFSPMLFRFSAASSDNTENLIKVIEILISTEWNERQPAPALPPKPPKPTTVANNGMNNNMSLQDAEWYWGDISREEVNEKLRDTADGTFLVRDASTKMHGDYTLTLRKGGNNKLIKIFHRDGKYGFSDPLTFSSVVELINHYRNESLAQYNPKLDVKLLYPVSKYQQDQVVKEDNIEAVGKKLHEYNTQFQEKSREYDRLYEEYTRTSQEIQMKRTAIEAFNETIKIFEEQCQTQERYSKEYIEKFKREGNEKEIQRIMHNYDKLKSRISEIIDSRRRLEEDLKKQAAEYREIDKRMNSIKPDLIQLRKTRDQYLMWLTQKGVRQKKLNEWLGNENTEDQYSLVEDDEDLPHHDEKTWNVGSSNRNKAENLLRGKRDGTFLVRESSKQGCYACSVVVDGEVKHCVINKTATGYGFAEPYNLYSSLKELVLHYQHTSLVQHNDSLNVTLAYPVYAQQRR
p110δ/p85α, sequence (O00329 whole entry): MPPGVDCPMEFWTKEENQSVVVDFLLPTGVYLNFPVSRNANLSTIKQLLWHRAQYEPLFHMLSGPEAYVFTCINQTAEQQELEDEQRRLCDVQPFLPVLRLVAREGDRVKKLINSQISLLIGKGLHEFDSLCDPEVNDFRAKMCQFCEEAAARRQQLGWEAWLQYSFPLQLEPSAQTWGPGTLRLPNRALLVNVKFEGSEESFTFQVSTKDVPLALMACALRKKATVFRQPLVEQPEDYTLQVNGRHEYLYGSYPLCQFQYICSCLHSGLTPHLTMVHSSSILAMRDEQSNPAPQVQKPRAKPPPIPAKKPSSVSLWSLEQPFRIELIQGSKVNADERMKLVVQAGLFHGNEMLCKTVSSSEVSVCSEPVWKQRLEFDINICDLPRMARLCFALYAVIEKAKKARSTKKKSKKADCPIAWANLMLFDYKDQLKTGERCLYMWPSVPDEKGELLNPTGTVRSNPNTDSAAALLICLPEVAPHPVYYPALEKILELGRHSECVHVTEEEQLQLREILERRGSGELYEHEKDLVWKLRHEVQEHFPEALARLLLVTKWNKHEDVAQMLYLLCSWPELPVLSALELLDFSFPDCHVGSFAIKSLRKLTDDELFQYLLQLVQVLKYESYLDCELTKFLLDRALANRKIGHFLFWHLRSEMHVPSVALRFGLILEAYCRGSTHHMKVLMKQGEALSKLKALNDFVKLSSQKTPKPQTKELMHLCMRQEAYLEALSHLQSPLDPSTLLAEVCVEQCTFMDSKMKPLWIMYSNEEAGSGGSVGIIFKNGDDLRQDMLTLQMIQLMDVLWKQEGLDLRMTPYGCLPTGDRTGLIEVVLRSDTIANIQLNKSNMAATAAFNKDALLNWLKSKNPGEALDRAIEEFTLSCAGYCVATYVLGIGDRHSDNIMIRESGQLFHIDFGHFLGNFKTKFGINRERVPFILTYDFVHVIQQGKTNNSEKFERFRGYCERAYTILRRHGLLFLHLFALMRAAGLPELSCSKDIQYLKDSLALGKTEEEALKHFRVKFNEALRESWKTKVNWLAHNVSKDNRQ
p110δ/p85α, sequence (P27986 whole entry partner): as the sequence (P27986 whole entry partner) above
p110β/p85α, sequence (P42338 whole entry): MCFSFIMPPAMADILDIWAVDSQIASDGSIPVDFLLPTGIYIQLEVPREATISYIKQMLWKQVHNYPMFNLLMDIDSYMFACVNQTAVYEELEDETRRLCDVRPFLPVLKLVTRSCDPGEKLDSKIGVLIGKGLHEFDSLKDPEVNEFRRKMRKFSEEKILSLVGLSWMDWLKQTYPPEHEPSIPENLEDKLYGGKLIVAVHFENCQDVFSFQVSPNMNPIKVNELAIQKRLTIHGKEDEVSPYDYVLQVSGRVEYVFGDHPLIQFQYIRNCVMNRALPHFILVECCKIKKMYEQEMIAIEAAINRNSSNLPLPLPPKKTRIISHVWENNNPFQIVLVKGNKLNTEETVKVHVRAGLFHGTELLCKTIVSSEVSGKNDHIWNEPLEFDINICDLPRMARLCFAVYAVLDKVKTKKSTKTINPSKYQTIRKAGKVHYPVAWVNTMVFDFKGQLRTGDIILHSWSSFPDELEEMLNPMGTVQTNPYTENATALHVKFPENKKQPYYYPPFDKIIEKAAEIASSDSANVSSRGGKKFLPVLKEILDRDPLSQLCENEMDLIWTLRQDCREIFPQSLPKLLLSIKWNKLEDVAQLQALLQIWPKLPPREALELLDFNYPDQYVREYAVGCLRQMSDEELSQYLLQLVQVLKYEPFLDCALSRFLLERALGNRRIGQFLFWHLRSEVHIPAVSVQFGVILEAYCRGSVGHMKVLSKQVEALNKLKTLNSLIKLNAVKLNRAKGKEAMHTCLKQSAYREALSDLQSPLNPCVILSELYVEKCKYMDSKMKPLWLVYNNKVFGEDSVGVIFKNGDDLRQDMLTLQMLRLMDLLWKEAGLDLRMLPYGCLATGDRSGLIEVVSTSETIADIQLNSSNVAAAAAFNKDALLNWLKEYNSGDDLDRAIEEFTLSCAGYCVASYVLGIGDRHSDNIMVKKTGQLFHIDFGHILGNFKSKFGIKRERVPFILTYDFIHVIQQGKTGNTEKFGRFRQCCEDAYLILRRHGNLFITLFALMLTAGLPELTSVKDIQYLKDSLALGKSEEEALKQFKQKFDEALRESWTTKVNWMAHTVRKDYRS
p110β/p85α, sequence (P27986 whole entry partner): as the sequence (P27986 whole entry partner) above
p110γ, sequence (P48736 whole entry): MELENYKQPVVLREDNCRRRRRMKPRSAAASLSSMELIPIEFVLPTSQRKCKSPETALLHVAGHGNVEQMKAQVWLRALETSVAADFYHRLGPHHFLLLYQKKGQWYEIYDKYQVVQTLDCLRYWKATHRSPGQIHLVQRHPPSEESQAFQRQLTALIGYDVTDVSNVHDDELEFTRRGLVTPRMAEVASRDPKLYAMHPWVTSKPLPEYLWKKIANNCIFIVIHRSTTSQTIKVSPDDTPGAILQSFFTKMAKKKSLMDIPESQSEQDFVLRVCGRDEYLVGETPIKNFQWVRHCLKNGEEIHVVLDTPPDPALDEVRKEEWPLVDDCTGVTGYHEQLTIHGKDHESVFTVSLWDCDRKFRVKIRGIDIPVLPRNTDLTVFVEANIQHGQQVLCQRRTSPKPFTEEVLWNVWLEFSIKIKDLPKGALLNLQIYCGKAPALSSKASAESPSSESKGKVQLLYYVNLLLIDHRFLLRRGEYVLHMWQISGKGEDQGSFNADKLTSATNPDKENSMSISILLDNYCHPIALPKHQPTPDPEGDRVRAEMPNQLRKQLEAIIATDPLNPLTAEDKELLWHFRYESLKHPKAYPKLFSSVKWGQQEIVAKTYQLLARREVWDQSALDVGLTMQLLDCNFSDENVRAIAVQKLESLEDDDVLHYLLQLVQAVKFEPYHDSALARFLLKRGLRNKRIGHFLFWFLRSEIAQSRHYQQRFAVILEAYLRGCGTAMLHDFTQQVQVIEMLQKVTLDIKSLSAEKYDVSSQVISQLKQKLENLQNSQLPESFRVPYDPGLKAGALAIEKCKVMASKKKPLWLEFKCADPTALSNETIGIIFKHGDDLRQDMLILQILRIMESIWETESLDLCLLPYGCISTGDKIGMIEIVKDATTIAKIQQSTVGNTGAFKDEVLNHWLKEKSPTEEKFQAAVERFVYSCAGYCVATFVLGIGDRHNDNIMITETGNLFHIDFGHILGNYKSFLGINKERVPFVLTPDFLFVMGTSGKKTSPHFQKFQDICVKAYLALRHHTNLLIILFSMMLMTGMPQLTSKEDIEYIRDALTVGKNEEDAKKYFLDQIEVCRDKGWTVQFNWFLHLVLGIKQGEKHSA

Structure (SMILES) | IC50 [1, 6] | IC50 ([2]; read-out: PI3K γ IC50) | IC50 ([3]; read-out: PI3K β IC50) | IC50 ([4]; read-out: PI3K δ IC50) | IC50 ([5]; read-out: PI3K α IC50) | IC50 [1, 7] | IC50 [2, 8] | IC50 [3, 9] | IC50 [4, 10] | IC50 [5, 11] | further results
Nc1nc2cc(-c3ccc4ncc(N5CCN(C(=O)[C@@H]6CCCN6)CC5)nc4c3)ccc2o1 [compound 121] | < 1000 nM | < 100 nM | < 100 nM | < 100 nM | < 100 nM |  |  |  |  |  | 
Nc1nc2cc(-c3ccc4sc(N)nc4c3)ccc2o1 [compound 248] |  |  |  |  |  | < 10000 nM | < 1000 nM | < 1000 nM | < 10000 nM | < 10000 nM | 
CC(=O)N1CCC(Nc2ncnc3ccc(-c4ccc5oc(N)nc5c4)nc23)CC1 [compound 211] |  |  |  |  |  | < 1000 nM | < 100 nM | < 100 nM | < 100 nM | < 100 nM | 
Nc1nc2cc(-c3ccc4ncc(C(=O)N5CCC(O)C5)n4c3)ccc2o1 (stereo not shown) [compound 202] |  |  |  |  |  | < 1000 nM | < 1000 nM | < 10000 nM | < 10000 nM | < 100 nM | 
Nc1nc2cc(-c3ccc4ncc(C(=O)N5CC[C@H](O)C5)n4c3)ccc2o1 [compound 264] |  |  |  |  |  | < 1000 nM | < 1000 nM | < 10000 nM | < 10000 nM | < 100 nM | 
Nc1nc2cc(-c3ccc4ncc(C(=O)N5CC[C@H](n6cccn6)C5)n4c3)ccc2o1 [compound 478] |  |  |  |  |  |  |  |  |  |  | IC50 [1, 12]: < 1000 nM; IC50 ([2]; read-out: PI3K γ In Vitro IC50): < 1000 nM; IC50 ([3]; read-out: PI3K β In Vitro IC50): < 10000 nM; IC50 ([4]; read-out: PI3K δ In Vitro IC50): < 1000 nM; IC50 ([5]; read-out: PI3K α In Vitro IC50): < 100 nM
O=C(c1cnc2ccc(-c3cnc(Cl)c(NS(=O)(=O)c4cccc(F)c4)c3)cn12)N1CCOCC1 [compound 458] |  |  |  |  |  |  |  |  |  |  | IC50 [1, 12]: < 1000 nM; IC50 ([2]; read-out: PI3K γ In Vitro IC50): < 100 nM; IC50 ([3]; read-out: PI3K β In Vitro IC50): < 100 nM; IC50 ([4]; read-out: PI3K δ In Vitro IC50): < 100 nM; IC50 ([5]; read-out: PI3K α In Vitro IC50): < 100 nM
CC(C)N1CCC(n2cnc3ccc(-c4cnc(Cl)c(NS(C)(=O)=O)c4)cc3c2=O)CC1 [compound 523] |  |  |  |  |  |  |  |  |  |  | IC50 [1, 12]: < 10000 nM; IC50 ([2]; read-out: PI3K γ In Vitro IC50): < 100 nM; IC50 ([3]; read-out: PI3K β In Vitro IC50): < 1000 nM; IC50 ([4]; read-out: PI3K δ In Vitro IC50): < 100 nM; IC50 ([5]; read-out: PI3K α In Vitro IC50): < 100 nM
CC(C)N1CCC(Nc2ncnc3ccc(-c4ccc5oc(N)nc5c4)cc23)CC1 [compound 101] | < 10000 nM | < 10000 nM | < 10000 nM | < 1000 nM | < 100 nM |  |  |  |  |  | 
Nc1nc2cc(-c3ccc4ncc(N5CCNCC5)nc4c3)ccc2o1 [compound 88] | < 10000 nM | < 1000 nM | < 100 nM | < 10000 nM | < 100 nM |  |  |  |  |  | 
Nc1nc2cc(-c3ccc4ncc(C(=O)N5CC[C@@H](O)C5)n4c3)ccc2o1 [compound 265] |  |  |  |  |  | < 1000 nM | < 100 nM | < 10000 nM | < 10000 nM | < 100 nM | 
Nc1nc2cc(-c3ccc4ncc(N5CCCC5)nc4c3)ccc2o1 [compound 176] | < 1000 nM | < 100 nM | < 1000 nM | < 1000 nM | < 100 nM |  |  |  |  |  | 
CC(C)(C)N1CCN(c2cnc3ccc(-c4ccc5oc(N)nc5c4)cc3n2)CC1 [compound 182] | < 10000 nM | < 1000 nM | < 1000 nM | < 1000 nM | < 100 nM |  |  |  |  |  | 
C[C@@H]1CN(C2CN(C(=O)c3cnc4ccc(-c5ccc6oc(N)nc6c5)cn34)C2)CCN1 [compound 511] |  |  |  |  |  |  |  |  |  |  | IC50 [1, 12]: < 10000 nM; IC50 ([2]; read-out: PI3K γ In Vitro IC50): < 10000 nM; IC50 ([3]; read-out: PI3K β In Vitro IC50): < 10000 nM; IC50 ([4]; read-out: PI3K δ In Vitro IC50): < 1000 nM; IC50 ([5]; read-out: PI3K α In Vitro IC50): < 100 nM
Nc1nc2cc(-c3ccc4ncc(C(=O)N5CC(N6CC[C@@H](O)C6)C5)n4c3)ccc2o1 [compound 470] |  |  |  |  |  |  |  |  |  |  | IC50 [1, 12]: < 10000 nM; IC50 ([2]; read-out: PI3K γ In Vitro IC50): < 1000 nM; IC50 ([3]; read-out: PI3K β In Vitro IC50): < 10000 nM; IC50 ([4]; read-out: PI3K δ In Vitro IC50): < 10000 nM; IC50 ([5]; read-out: PI3K α In Vitro IC50): < 100 nM
C[C@@H](N)C(=O)N1CCN(c2cnc3ccc(-c4ccc5oc(N)nc5c4)cc3n2)CC1 [compound 208] |  |  |  |  |  | < 10000 nM | < 10000 nM | < 1000 nM | < 1000 nM | < 100 nM | 

Structure (SMILES) | IC50 [1, 6] | IC50 ([2]; read-out: PI3K γ IC50) | IC50 ([3]; read-out: PI3K β IC50) | IC50 ([4]; read-out: PI3K δ IC50) | IC50 ([5]; read-out: PI3K α IC50) | IC50 [1, 7] | IC50 [2, 8] | IC50 [3, 9] | IC50 [4, 10] | IC50 [5, 11] | further results
CS(=O)(=O)CCN1CCN(c2cnc3ccc(-c4ccc5oc(N)nc5c4)cc3n2)CC1 [compound 90] | < 1000 nM | < 1000 nM | < 1000 nM | < 10000 nM | < 100 nM |  |  |  |  |  | 
Nc1nc2cc(-c3ccc4ncc(N5CCC(O)C5)nc4c3)ccc2o1 (stereo not shown) [compound 209] |  |  |  |  |  | < 10000 nM | < 100 nM | < 1000 nM | < 10000 nM | < 100 nM | 
Nc1nc2cc(-c3ccc4ncc(N5CC(N6CCS(=O)(=O)CC6)C5)nc4c3)ccc2o1 [compound 334] |  |  |  |  |  | < 1000 nM | < 10000 nM | < 10000 nM | < 10000 nM | < 100 nM | 
Nc1nc2cc(-c3ccc4ncc(C(=O)NCCCN5CCOCC5)n4c3)ccc2o1 [compound 288] |  |  |  |  |  | < 10000 nM | < 10000 nM | < 1000 nM | < 1000 nM | < 1000 nM | 
CN(C)CC(=O)N1CCN(c2cnc3ccc(-c4ccc5oc(N)nc5c4)cc3n2)CC1 [compound 139] | < 1000 nM | < 1000 nM | < 1000 nM | < 1000 nM | < 100 nM |  |  |  |  |  | 
C[C@H](N)C(=O)N1CCN(c2cnc3ccc(-c4ccc5oc(N)nc5c4)cc3n2)CC1 [compound 207] |  |  |  |  |  | < 1000 nM | < 100 nM | < 100 nM | < 1000 nM | < 100 nM | 
CCN1CCN(c2cnc3ccc(-c4ccc5oc(N)nc5c4)cc3n2)CC1 [compound 152] | < 10000 nM | < 1000 nM | < 100 nM | < 10000 nM | < 100 nM |  |  |  |  |  | 
CC(C)N1CCN(C(=O)C2CN(c3cnc4ccc(-c5ccc6oc(N)nc6c5)cc4n3)C2)CC1 [compound 285] |  |  |  |  |  | < 1000 nM | < 1000 nM | < 10000 nM | < 1000 nM | < 100 nM | 
O=C(c1cnc2ccc(-c3cnc(Cl)c(NS(=O)(=O)c4ccc(F)cc4)c3)cn12)N1CCOCC1 [compound 457] |  |  |  |  |  |  |  |  |  |  | IC50 [1, 12]: < 1000 nM; IC50 ([2]; read-out: PI3K γ In Vitro IC50): < 100 nM; IC50 ([3]; read-out: PI3K β In Vitro IC50): < 100 nM; IC50 ([4]; read-out: PI3K δ In Vitro IC50): < 100 nM; IC50 ([5]; read-out: PI3K α In Vitro IC50): < 100 nM
O=C(c1cnc2ccc(-c3cnc(Cl)c(NS(=O)(=O)c4ccccc4F)c3)cn12)N1CCOCC1 [compound 452] |  |  |  |  |  |  |  |  |  |  | IC50 [1, 12]: < 10000 nM; IC50 ([2]; read-out: PI3K γ In Vitro IC50): < 100 nM; IC50 ([3]; read-out: PI3K β In Vitro IC50): < 1000 nM; IC50 ([4]; read-out: PI3K δ In Vitro IC50): < 100 nM; IC50 ([5]; read-out: PI3K α In Vitro IC50): < 100 nM
Cc1nccn1-c1cnc2ccc(-c3ccc4oc(N)nc4c3)cc2n1 [compound 174] | < 10000 nM | < 100 nM | < 1000 nM | < 10000 nM | < 100 nM |  |  |  |  |  | 
COC1CN(C(=O)c2cnc3ccc(-c4ccc5oc(N)nc5c4)cn23)C1 [compound 467] |  |  |  |  |  |  |  |  |  |  | IC50 [1, 12]: < 1000 nM; IC50 ([2]; read-out: PI3K γ In Vitro IC50): < 100 nM; IC50 ([3]; read-out: PI3K β In Vitro IC50): < 10000 nM; IC50 ([4]; read-out: PI3K δ In Vitro IC50): < 10000 nM; IC50 ([5]; read-out: PI3K α In Vitro IC50): < 100 nM
Nc1nc2cc(-c3ccc4ncc(NC5CCOCC5)nc4c3)ccc2o1 [compound 96] | < 1000 nM | < 100 nM | < 10000 nM | < 1000 nM | < 100 nM |  |  |  |  |  | 
Nc1nc2cc(-c3ccc4ncc(N5CCN(C(=O)CN6CCCC6)CC5)nc4c3)ccc2o1 [compound 278] |  |  |  |  |  | < 1000 nM | < 1000 nM | < 1000 nM | < 10000 nM | < 100 nM | 
Nc1nc2cc(-c3ccc4ncc(N5CCN(CCO)CC5)nc4c3)ccc2o1 [compound 100] | < 1000 nM | < 1000 nM | < 100 nM | < 10000 nM | < 100 nM |  |  |  |  |  | 
CS(=O)(=O)CCN1CCC(Nc2cnc3ccc(-c4ccc5oc(N)nc5c4)cc3n2)CC1 [compound 181] | < 10000 nM | < 100 nM | < 10000 nM | < 1000 nM | < 100 nM |  |  |  |  |  | 
